Laboratory results taken from US20100130457A1, “Phenothiazine Derivatives for Treatment of Asthma” (Immune Control, Inc., priority 2008, published 2010).
Entries after “also recorded” stand apart in the source; their conditions may differ.

Experiments:
[1] = Pharmacokinetics, plasma levels in mice; type: in vivo, mouse
Protocol: Mice were treated with either 1.0 mg/kg or 10 mg/kg of ICI-735 by way of intraperitoneal administration. The plasma levels of ICI-735 were measured at baseline and various time points following administration (FIG. 6). […] Without wishing to be bound by any particular theory, it is believed that the effectiveness of ICI-735 to treat asthma can be achieved with a low dose (e.g, 1.0 mg/kg dose).
Mice were also treated with either 2.5 mg/kg intravenously or 5 mg/kg orally of ICI-735. The plasma levels of ICI-735 were measured at baseline and various time points following administration (FIG. 7). […] It was determined that oral bioavailability was approximately 20%. Therefore, it is believed that ICI-735 administration orally at approximately 1 mg/kg/day is effective at reducing lung resistence in patients with asthma.

human small airway = experiment: Human precision-cut lung slices (PCLS), small airway contraction; details: for CCh-induced bronchoconstriction after pretreatment of lung slices: C-027 10^−5 M, formoterol 0.3 nM
Protocol: Human precision-cut lung slices (PCLS) permit evaluation of pharmacological responses of novel drug candidates applied directly to their target tissue.
Human precision-cut lung slices (PCLS, 250 μm thick) containing a small airway were contracted to carbachol, histamine and passively sensitization to induce airway closure±pre-incubation with ICI-735 (10 μM; 2 hours); FIG. 13. For example, human lung slices containing a small airway were incubated overnight with either negative control IgG (4 μg/mL) or positive control IgE (4 μg/mL). The slices were tested as follows: 1) IgG+anti-IgE; 2) IgE+anti-IgE; 3) IgE+Dexamethasone (1 μM)+anti-IgE; and 4) IgE+ICI-735 (10 μM) +anti-IgE. Dexamethasone and ICI-735 were pre-incubated 2 hours prior to anti-IgE; anti-IgE is used to crosslink antibodies and induce mast cell degranulation, which is believed to release histamine and cause airway contract. […]
Human lung tissue contains multiple cell types, including mast cells, that localize in the region of airway smooth muscle, and that increase in number in individuals with asthma. Cross-linking of Fcε;R1 receptors on surfaces of mast cells leads to release of granules that contain smooth muscle contractile agonists, including histamine and leukotrienes.
To test C-027 as a blocker of histamine-induced bronchoconstriction, lung slices were incubated for 2 hours with C-027, and small airway contraction was evaluated after addition of increasing concentrations of histamine.

[2] = test system: BALB/c mice, Af-induced allergic airway inflammation; experiment: Bronchoalveolar lavage (BAL) analysis for cell count and cytokines in the asthma model; type: in vivo, mouse
Protocol: Lungs from the tested animals in Example 2 were lavaged with either a small volume (1 ml) of sterile PBS or a large volume (5 ml) of sterile saline, and total and differential cell counts were performed as described previously (Haczku et al., 1999 Am. J. Respir. Crit. Care Med. 159: 1638-1643; Haczku et al., 2000 Am. J. Respir. Crit. Care Med. 161: 952-960).
With respect to the murine model of allergen induced AHR, BALB/c mice were sensitized and challenged via intranasal instillation of Aspergillus fumigatus (Af). Two hours prior to each intranasal challenge, cohorts of five mice were administered intra peritonially (i.p.) with ICI-735 (1 mg/ml), dexamethasone (10 mg/ml). Four hours after the last allergen challenge, airway function was assessed by flexivent. Differential cytokine and immune cell abundance were also accessed in BAL fluid.

NCC(=O)NCCN1CCN(CCCN2c3ccccc3Sc3ccc(C(F)(F)F)cc32)CC1 [ICI-735]
plasma levels after oral 5 mg/kg dose versus intravenous 2.5 mg/kg dose [1]: comparable
plasma levels after 1.0 mg/kg dose versus 10 mg/kg dose ([1]; intraperitoneal): comparable
bioavailability ([1]; mouse, plasma, oral, 5 mg/kg orally vs 2.5 mg/kg intravenously): ~20%
histamine response at the highest concentration tested (human small airway; 10 μM): does not completely prevent
histamine-induced contraction / bronchoconstriction (human small airway; 2 hours pre-incubation, increasing concentrations of histamine): antagonize; also recorded: blocks; also recorded: prevented
CCh-induced bronchoconstriction after pretreatment of lung slices (human small airway): antagonize; also recorded: prevents and reverses bronchoconstriction
CCh-induced bronchoconstriction after pretreatment of lung slices (human small airway; listed as C-027): blocks
airway contraction to IgE/anti-IgE (passive sensitization, mast cell degranulation) (human small airway; ICI-735 10 μM, dexamethasone 1 μM, pre-incubated 2 hours): antagonize; also recorded: attenuation; also recorded: blocks bronchoconstriction
IL-13-induced airway hyper-responsiveness to CCh (human small airway; IL-13 50 ng/mL overnight, compound one hour prior): diminishes
relaxation of maximally contracted airway smooth muscle (human small airway; in the presence of 30 μM CCh, isoproterenol 10 μM): induces relaxation
cytokine production in BAL ([2]; Af-sensitized mice): little effect; also recorded: no significant effects
total number of cells / immune cell infiltration in BAL ([2]; asthmatic animals, treated vs untreated): not a significant difference; also recorded: little effect; also recorded: no significant effects
